# Laboratory results: patent US11952384B2, “Anti-tumor compound and preparation method and use thereof” (DUALITY BIOLOGICS (SUZHOU) CO., LTD., priority 2020, dated 2024)
# Like-named read-outs stand apart in the source and are kept apart here.
# Experiments:
# JIMT-1 cells = test: Inhibition of in vitro proliferation of tumor cells by compounds (CTG, 6 days); assay type: cell-based; conditions: Table 1, Test Example 2.1, small molecule fragments, 6 days of culture, CTG, read-out: JIMT-1 IC50
# Procedure: (§1) To test the inhibitory activity of the pharmaceutical compounds on the in vitro proliferation of NCI-N87, JIMT-1 and MBA-MB-231 tumor cells. The cells were treated with the compounds at different concentrations in vitro, and after 6 days of culture, the proliferation of cells was detected using the CTG (CellTiter-Glo® Luminescent Cell Viability Assay, Promega, Cat. No. G7558) reagent, and the in vitro activity of the compounds was evaluated according to the IC50 value.
# (§2) In the following, the test for the inhibition of the in vitro proliferation of NCI-N87 cells was taken as an example to illustrate the method of the present application for testing the inhibitory activity of the compounds of the present application on the in vitro proliferation of tumor cells. The method was also applicable to, but not limited to, the test for the inhibitory activity on the in vitro proliferation of other tumor cells. • 1. Culturing of cells: NCI-N87 cells were cultured in RPMI-1640 medium containing 10% FBS. • 2. Preparation of cells: NCI-N87 cells in logarithmic phase were taken, washed with PBS once, and digested with 2-3 mL of trypsin for 2-3 min. After the cells were digested completely, 10-15 mL of cell culture was added to elute the digested cells. The eluate was centrifuged at 1000 rpm for 5 min, and the supernatant was discarded. The resulting cells were resuspended in 10-20 mL of cell culture to obtain a single cell suspension. • 3. Cell plating: the NCI-N87 single cell suspension was mixed well and adjusted to a viable cell density of 6×10^4 cells/mL with cell culture. The cell suspension with the adjusted density was mixed well and added to a 96-well cell culture plate at 50 μL/well. The culture plate was incubated in an incubator for 18 h (37° C., 5% CO2). • 4. Preparation of compounds: the compounds were dissolved in DMSO to obtain stock solutions at an initial concentration of 10 mM. There were 8 concentrations in total for the small molecule compounds: 300 nM, 100 nM, 30 nM, 10 nM, 3 nM, 1 nM, 0.3 nM, and 0.1 nM. • 5. Sample adding: the prepared samples to be detected at different concentrations were added to the culture plate, and two duplicate wells were set for each sample. The culture plate was incubated in an incubator for 6 days (37° C., 5% CO2). • 6. Color developing: the 96-well cell culture plate was taken out, added with the CTG reagent at 50 μL/well, and incubated at room temperature for 10 min. • 7. Plate reading: the 96-well cell culture plate was taken out, placed in a microplate reader, and measured for the chemiluminescence using the microplate reader. Data Analysis
# (§3) Data were processed and analyzed using Microsoft Excel and Graphpad Prism 5.
# (§4) To test the inhibitory activity of the pharmaceutical compounds on the in vitro proliferation of NCI-N87, JIMT-1 and MBA-MB-231 tumor cells. The cells were treated with compounds at different concentrations in vitro, and after 6 days of culture, the proliferation of cells was detected using CTG (CellTiter-Glo® Luminescent Cell Viability Assay, Promega, Cat. No. G7558) reagents, and the in vitro activity of the compounds was evaluated according to the IC50 value. • 1. Culturing of cells: NCI-N87/JIMT-1/MBA-MB-231 cells were cultured in RPMI-1640 medium containing 10% FBS. • 2. Preparation of cells: NCI-N87/JIMT-1/MBA-MB-231 cells in logarithmic phase were taken, washed with PBS once, and digested with 2-3 mL of trypsin for 2-3 min. After the cells were digested completely, 10-15 mL of cell culture was added to elute the digested cells. The eluate was centrifuged at 1000 rpm for 5 min, and the supernatant was discarded. The resulting cells were resuspended in 10-20 mL of cell culture to obtain a single cell suspension. • 3. Cell plating: the NCI-N87/JIMT-1/MBA-MB-231 single cell suspension was mixed well and adjusted to a viable cell density of 6×10^4 cells/mL with cell culture. […]
# NCI-N87 cells = test: as above; assay type: cell-based; conditions: small molecule fragments, 6 days of culture, CTG, read-out: NCI-N87 IC50
# Procedure: as §1, §2, §3, §4
# P-gp = target: T1, P-gp (Homo sapiens, UniProt P08183); test: Study on transporter substrates in Caco-2 cell model; assay type: in vitro ADME; conditions: Caco-2
# T1 construct: endogenous in cells; host or cells: Caco-2
# Procedure: The resistance of each well was recorded. […] 2. […] The plate was vortexed for 10 min. The samples were centrifuged. […] HBSS was added to the basolateral compartment. […] 3. Data Analysis
# Data were calculated using Microsoft Excel.
# BCRP [1] = target: T2, BCRP (Homo sapiens, UniProt Q9UNQ0); conditions: Caco-2
# T2 sequence (Q9UNQ0 1-655): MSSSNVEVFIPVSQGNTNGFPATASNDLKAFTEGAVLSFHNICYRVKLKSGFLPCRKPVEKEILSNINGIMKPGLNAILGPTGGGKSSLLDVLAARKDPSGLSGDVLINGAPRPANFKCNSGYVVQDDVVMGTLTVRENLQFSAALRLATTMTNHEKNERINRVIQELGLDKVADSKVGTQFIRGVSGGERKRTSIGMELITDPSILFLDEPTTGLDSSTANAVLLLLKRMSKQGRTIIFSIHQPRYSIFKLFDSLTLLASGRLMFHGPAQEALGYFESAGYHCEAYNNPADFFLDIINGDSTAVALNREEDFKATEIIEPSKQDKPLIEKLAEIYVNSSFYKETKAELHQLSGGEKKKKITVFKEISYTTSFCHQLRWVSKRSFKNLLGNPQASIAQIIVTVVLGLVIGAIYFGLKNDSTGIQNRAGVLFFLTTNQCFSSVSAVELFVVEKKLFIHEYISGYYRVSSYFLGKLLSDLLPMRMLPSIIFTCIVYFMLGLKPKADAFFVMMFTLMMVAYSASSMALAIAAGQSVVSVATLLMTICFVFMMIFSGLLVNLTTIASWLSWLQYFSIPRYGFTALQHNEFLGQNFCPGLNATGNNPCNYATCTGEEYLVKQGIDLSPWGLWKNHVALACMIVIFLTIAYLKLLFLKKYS
# Procedure: (§5) To investigate whether the compounds of the present invention is a substrate for efflux transporters P-gp and BCRP in a Caco-2 cell model, thereby providing preclinical basis for analyzing the drug-drug interaction in pharmacokinetics.
# (§6) • 1) Cell culture medium was added to each well of the Transwell. The HTS Transwell plate was incubated under conditions of 37° C. and 5% CO2 for 1 h prior to cell inoculation. • 2) Caco-2 cells were diluted with culture medium and the cell suspension was dispensed into filter wells of the 96-well HTS Transwell plate. […] The cell culture medium was changed periodically. • 3) Monolayer cell resistance was measured using the Millicell Epithelial Volt-Ohm detection system. The resistance of each well was recorded. After all wells were measured, the Transwell plate was put back into the incubator. TEER of each well was calculated according to the formula. The TEER value of each well should be greater than 230 ohm·cm^2. […] Preparation for Transporter Test • 1) The Caco-2 plate was taken out from the incubator. The monolayer cells were washed with pre-heated HBSS twice. The plate was then incubated at 37° C. for 30 min. • 2) Stock solutions of the compounds were prepared in DMSO and diluted with HBSS to obtain working solutions. Digoxin was used as a reference substrate for P-gp and rosuvastatin was used as a reference substrate for BCRP. Propranolol was used as a high permeability marker. • 3) The working solution (without inhibitor) was added to the Transwell insert (apical compartment) to determine the rate of drug transport in the apical to basolateral direction. The transfer buffer was added to the wells in the receiver plate (basolateral compartment). The working solution (without inhibitor) was added to the receiver plate wells (basolateral compartment) to determine the rate of drug transport in the basolateral to apical direction. The Transwell insert (apical compartment) was filled with the transport buffer. PSC833 was added to the apical and basolateral compartments to determine the rate of drug transport in the presence of P-gp inhibitors. • 4) The sample was transferred from the working solution to the quenching solution, and a sample with a time of 0 was prepared. The Transwell plate was incubated under conditions of 37° C. and 5% CO2 for 2 h. • 5) At the end of the transport cycle, the samples were transferred from the apical and basolateral wells into a new 96-well plate. Cold acetonitrile or methanol containing the appropriate internal standard (IS) was added to each well of the plate. The plate was vortexed for 10 min. The samples were centrifuged. The supernatant of an aliquot was mixed with an appropriate amount of ultrapure water (depending on the LC-MS/MS signal response and peak shape) prior to the LC-MS/MS analysis. • 6) The stock solution of lucifer yellow in DMSO was prepared and diluted with HBSS to determine the amount of lucifer yellow leakage after a 2-hour transport period. The lucifer yellow solution was added to the apical compartment. HBSS was added to the basolateral compartment. The plate was incubated at 37° C. for 30 min, and a certain amount of the solution was directly taken from the apical and basolateral wells and transferred to a new 96-well plate. The lucifer yellow fluorescence was measured in a fluorescence plate reader with 485 nm excitation and 530 nm emission (to monitor monolayer integrity).
# (§7) Data were calculated using Microsoft Excel. The percentage of the compound remaining at each time point was estimated by determining the peak area ratio from the extracted ion chromatogram.
# (§8) For drug transport analysis in the Caco-2 cell model, the apparent permeability coefficient (Papp) can be calculated according to the following formula, in cm/s:
# (§9) [formula] • wherein the concentration C is in nM, the volume V is in μL, the time T is in s, and the area S is in cm^2.
# (§10) The recovery rate is calculated according to the following formula:
# BCRP [2] = target: T2, BCRP; test: in vitro
# Procedure: as §5, §6, §7, §8, §9, §10
# BCRP [3] = target: T2, BCRP; test: Study on transporter substrates in Caco-2 cell model; conditions: human, Caco-2
# Procedure: as §5, §6, §7, §8, §9, §10
# MDA-MB-231 cells = test: Inhibition of in vitro proliferation of tumor cells by compounds (CTG, 6 days); assay type: cell-based; conditions: Homo sapiens, MDA-MB-231, 144 h, Table 3, Test Example 2.3; small molecule fragments; 6 days of culture, CTG; read-out: MDA-MB-231 IC50
# Procedure: To test the inhibitory activity of the pharmaceutical compounds on the in vitro proliferation of NCI-N87, JIMT-1 and MBA-MB-231 tumor cells. The cells were treated with compounds at different concentrations in vitro, and after 6 days of culture, the proliferation of cells was detected using CTG (CellTiter-Glo® Luminescent Cell Viability Assay, Promega, Cat. No. G7558) reagents, and the in vitro activity of the compounds was evaluated according to the IC50 value. • 1. Culturing of cells: NCI-N87/JIMT-1/MBA-MB-231 cells were cultured in RPMI-1640 medium containing 10% FBS. • 2. Preparation of cells: NCI-N87/JIMT-1/MBA-MB-231 cells in logarithmic phase were taken, washed with PBS once, and digested with 2-3 mL of trypsin for 2-3 min. After the cells were digested completely, 10-15 mL of cell culture was added to elute the digested cells. The eluate was centrifuged at 1000 rpm for 5 min, and the supernatant was discarded. The resulting cells were resuspended in 10-20 mL of cell culture to obtain a single cell suspension. • 3. Cell plating: the NCI-N87/JIMT-1/MBA-MB-231 single cell suspension was mixed well and adjusted to a viable cell density of 6×10^4 cells/mL with cell culture. The cell suspension with the adjusted density was mixed well and added to a 96-well cell culture plate at 50 μL/well. The culture plate was incubated in an incubator for 18 h (37° C., 5% CO2). • 4. Preparation of compounds: the compounds were dissolved in DMSO to obtain stock solutions at an initial concentration of 10 mM. There were 8 concentrations in total for the small molecule compounds: 300 nM, 100 nM, 30 nM, 10 nM, 3 nM, 1 nM, 0.3 nM, and 0.1 nM. • 5. Sample adding: the prepared samples to be detected at different concentrations were added to the culture plate, and two duplicate wells were set for each sample. The culture plate was incubated in an incubator for 6 days (37° C., 5% CO2). • 6. Color developing: the 96-well cell culture plate was taken out, added with the CTG reagent at 50 μL/well, and incubated at room temperature for 10 min. • 7. Plate reading: the 96-well cell culture plate was taken out, placed in a microplate reader, and measured for the chemiluminescence using the microplate reader. Data analysis: data were processed and analyzed using Microsoft Excel and Graphpad Prism 5.
# Colo205 cells = test: as above; assay type: cell-based; conditions: Homo sapiens, COLO 205, 144 h, Table 4, Test Example 2.4, small molecule fragments, 6 days of culture
# Procedure: To test the inhibitory activity of the pharmaceutical compounds on the in vitro proliferation of NCI-N87 and Colo205 tumor cells. The cells were treated with compounds at different concentrations in vitro, and after 6 days of culture, the proliferation of cells was detected using CTG (CellTiter-Glo® Luminescent Cell Viability Assay, Promega, Cat. No. G7558) reagents, and the in vitro activity of the compounds was evaluated according to the IC50 value. • 1. Culturing of cells: NCI-N87/Colo205 cells were cultured in RPMI-1640 medium containing 10% FBS. • 2. Preparation of cells: NCI-N87/Colo205 cells in logarithmic phase were taken, washed with PBS once, and digested with 2-3 mL of trypsin for 2-3 min. After the cells were digested completely, 10-15 mL of cell culture was added to elute the digested cells. The eluate was centrifuged at 1000 rpm for 5 min, and the supernatant was discarded. […] Sample adding: the prepared samples to be detected at different concentrations were added to the culture plate, and two duplicate wells were set for each sample. […] Plate reading: the 96-well cell culture plate was taken out, placed in a microplate reader, and measured for the chemiluminescence using the microplate reader. Data analysis: data were processed and analyzed using Microsoft Excel and Graphpad Prism 5.
# T1 sequence (P08183 whole entry): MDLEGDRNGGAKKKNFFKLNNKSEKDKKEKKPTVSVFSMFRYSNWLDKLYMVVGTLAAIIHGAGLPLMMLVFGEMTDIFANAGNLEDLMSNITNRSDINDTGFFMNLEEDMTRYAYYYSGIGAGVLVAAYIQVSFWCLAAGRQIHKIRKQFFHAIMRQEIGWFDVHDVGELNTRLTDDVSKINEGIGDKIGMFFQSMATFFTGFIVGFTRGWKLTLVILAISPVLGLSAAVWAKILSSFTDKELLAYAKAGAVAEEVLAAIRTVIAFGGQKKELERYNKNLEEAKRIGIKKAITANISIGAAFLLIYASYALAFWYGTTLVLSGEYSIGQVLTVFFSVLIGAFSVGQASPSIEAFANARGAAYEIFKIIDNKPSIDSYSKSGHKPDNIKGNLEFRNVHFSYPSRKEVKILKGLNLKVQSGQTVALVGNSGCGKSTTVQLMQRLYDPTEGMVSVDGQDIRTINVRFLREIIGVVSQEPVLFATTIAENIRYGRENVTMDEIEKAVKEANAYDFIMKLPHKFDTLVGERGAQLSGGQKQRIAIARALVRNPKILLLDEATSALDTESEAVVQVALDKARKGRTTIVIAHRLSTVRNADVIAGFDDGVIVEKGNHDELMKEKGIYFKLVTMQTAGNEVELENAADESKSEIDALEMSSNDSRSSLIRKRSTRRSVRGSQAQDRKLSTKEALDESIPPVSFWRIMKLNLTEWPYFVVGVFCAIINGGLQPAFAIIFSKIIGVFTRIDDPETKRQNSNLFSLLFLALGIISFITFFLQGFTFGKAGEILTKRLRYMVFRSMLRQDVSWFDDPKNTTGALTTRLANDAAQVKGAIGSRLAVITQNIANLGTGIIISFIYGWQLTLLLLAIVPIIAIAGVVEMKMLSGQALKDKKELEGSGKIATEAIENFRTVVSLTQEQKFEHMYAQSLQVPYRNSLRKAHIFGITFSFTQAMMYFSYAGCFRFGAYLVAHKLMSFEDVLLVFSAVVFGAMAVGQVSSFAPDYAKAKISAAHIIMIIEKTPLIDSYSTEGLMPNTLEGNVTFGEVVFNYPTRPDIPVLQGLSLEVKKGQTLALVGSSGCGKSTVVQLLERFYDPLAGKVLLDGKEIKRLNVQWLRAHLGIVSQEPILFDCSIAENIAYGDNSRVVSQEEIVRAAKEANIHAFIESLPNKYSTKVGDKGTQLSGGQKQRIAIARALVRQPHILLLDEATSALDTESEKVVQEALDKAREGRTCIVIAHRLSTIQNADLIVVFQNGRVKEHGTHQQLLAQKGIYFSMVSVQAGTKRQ
SMILES,"IC50 (JIMT-1 cells; Homo sapiens, JIMT-1, 144 h) [nM]",IC50 (JIMT-1 cells) [nM],"IC50 (NCI-N87 cells; Homo sapiens, NCI-N87, 144 h, Table 1, Test Example 2.1) [nM]","IC50 (NCI-N87 cells; Table 1, Test Example 2.1) [nM]",P-gp substrate (P-gp),"Papp (A-B) (10^−6, cm/s) (BCRP [1])","Papp (B-A) (10^−6, cm/s) (BCRP [1])","Papp A→B at 2 h (BCRP [2]; Caco-2, Papp (A-B) (10^−6, cm/s)) [×10⁻⁶ cm/s]","Papp B→A at 2 h (BCRP [2]; Caco-2, Papp (B-A) (10^−6, cm/s)) [×10⁻⁶ cm/s]","efflux ratio at 2 h (BCRP [3]; Caco-2, Efflux ratio, KO143 −)","recovery at 2 h (BCRP [3]; Caco-2, Recovery rate (%) AP-BL, KO143 −) [%]","recovery at 2 h (BCRP [3]; Caco-2, Recovery rate (%) BL-AP, KO143 −) [%]","recovery at 2 h (BCRP [3]; Caco-2, with KO143 (concentration not stated), Recovery rate (%) AP-BL, KO143 +) [%]","recovery at 2 h (BCRP [3]; Caco-2, with KO143 (concentration not stated), Recovery rate (%) BL-AP, KO143 +) [%]","IC50 (NCI-N87 cells; Homo sapiens, NCI-N87, 144 h, Table 4, Test Example 2.4) [nM]",IC50 (MDA-MB-231 cells) [nM],IC50 (Colo205 cells) [nM]
CC[C@@]1(O)C(=O)OCc2c1cc1n(c2=O)Cc2c-1nc1cc(F)c(C)c3c1c2[C@@H](N1CCC(O)C1=O)CC3 (some centres unmarked) [P-I-1],23.7,21.8,97.3,61.6,neither transporter P-gp substrates nor transporter BCRP substrates,"0.21 10^−6, cm/s","4.94 10^−6, cm/s",0.13,4.06,32.4,80.5,76.1,81.5,80.3,–,–,–
"CC[C@@]1(O)C(=O)OCc2c1cc1n(c2=O)Cc2c-1nc1cc(F)c(C)c3c1c2[C@@H](NC(=O)C[C@H](C)O)CC3 [P-III-30, (S)-N-((1S,9S)-9-ethyl-5-fluoro-9-hydroxy-4-methyl-10,13-dioxo-2,3,9,10,13,15-hexahydro-1H,12H-benzo[de]pyrano[3′,4′:6,7]indolizino[1,2-b]quinolin-1-yl)-3-hydroxybutanamide]",–,–,–,–,–,–,–,–,–,–,–,–,–,–,3,28.5,9
